Values joined by “and” are separate entries in the source; they are usually repeats but may differ in a detail not shown here. Identical values can stand only once.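 Where inhibition never reached the appropriate level, the endpoint shown equals the highest concentration tested. Otherwise, values were interpolated linearly from a five-concentration, 48-hour dose response in 96-well plates. GI50: concentration for 50% inhibition of growth. TGI is the concentration that stops growth completely.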
Legend:
Experiment in all cases: NCI anticancer screen, dose series, 48 h
BT-549 breast = test system: BT-549 breast
COLO 205 colon = test system: COLO 205 colon
IGROV1 ovarian = test system: IGROV1 ovarian
LOX IMVI melanoma = test system: LOX IMVI melanoma
M14 melanoma = test system: M14 melanoma
PC-3 prostate = test system: PC-3 prostate
SF-268 CNS = test system: SF-268 CNS
SK-MEL-5 melanoma = test system: SK-MEL-5 melanoma

Row | Compound | TGI (BT-549 breast) | TGI (COLO 205 colon) | TGI (IGROV1 ovarian) | TGI (LOX IMVI melanoma) | TGI (M14 melanoma) | TGI (PC-3 prostate) | TGI (SF-268 CNS) | TGI (SK-MEL-5 melanoma) | GI50 (BT-549 breast) | GI50 (COLO 205 colon) | GI50 (IGROV1 ovarian) | GI50 (LOX IMVI melanoma) | GI50 (M14 melanoma) | GI50 (PC-3 prostate) | GI50 (SF-268 CNS) | GI50 (SK-MEL-5 melanoma)
1 | NC(=O)NCCSC1CCCCC1O (centres undefined) | > 100 µM | > 100 µM | > 100 µM | > 100 µM | > 100 µM | > 100 µM | > 100 µM | > 100 µM |  |  |  |  |  |  |  | 
2 | CCCCCCN1CCN(Cc2ccc(N(CC)CC)cc2)C(=O)C1=O | 95.6 µM | 10.1 µM | > 100 µM | > 100 µM | 9.08 µM | 54 µM | > 100 µM | 11.3 µM | 10.2 µM | 0.759 µM | 6.63 µM | 7.95 µM | 2.3 µM | 2.97 µM | 6.21 µM | 0.412 µM
3 | COc1ccc(-c2nc3sc4c(c3c(=O)[nH]2)CCCC4)c2ccccc12 | 6.08 µM and 3.47 µM |  | > 100 µM | > 100 µM | 0.63 µM and 0.135 µM | > 100 µM | > 100 µM | 5.52 µM |  |  |  |  |  | 0.343 µM and 0.0371 µM |  | 
4 | COc1ccc2c(c1)[C@@]1(C)CCC3c4ccc(O)cc4CCC3C1C2 (some centres undefined) | 40.7 µM | 31 µM | 48.2 µM | 24.2 µM | 33.5 µM | 42 µM | 32.6 µM | 33.1 µM | 22.4 µM | 14.7 µM | 20.6 µM | 11 µM | 18.9 µM | 20.1 µM | 16.3 µM | 17 µM
5 | CO/C(=N\N=C\c1cccc(C(F)(F)F)c1)c1ccncc1 | 68 µM | 39.6 µM | 79.3 µM | > 100 µM | 94.4 µM | > 100 µM |  | 32.4 µM | 8.78 µM |  |  | 10.2 µM |  |  |  | 
6 | CN1C(=O)C(c2c[nH]c3ccccc23)=C(c2c(-c3c[nH]c4ccccc34)[nH]c3ccccc23)C1=O |  | 7.89 µM | > 100 µM | 17 µM | 4.79 µM | 17.3 µM | 19.5 µM |  |  | 2.8 µM | 9.53 µM | 4.67 µM | 1.76 µM | 3.11 µM | 4.07 µM | 
7 | COc1ccc(-c2csc3c2-n2cccc2C3=O)cc1O | > 100 µM | 26.3 µM | > 47.3 µM | > 100 µM |  | > 100 µM | > 82.2 µM | 0.237 µM | 0.0197 µM | 9.77 µM | 0.824 µM | < 0.0182 µM |  | 0.265 µM | < 0.0284 µM | 0.0326 µM
8 | Cc1ccc2nc(N/N=C/c3cccc(C)n3)cc(C)c2c1 | 33.3 µM | 32.6 µM | 32 µM | 31.6 µM | 46.9 µM | 37.2 µM | 38.7 µM | 36.4 µM |  |  |  |  |  |  |  | 
9 | O=C(NC1(C(=O)O)CC1c1ccccc1)c1ccccc1 (centres undefined) | > 100 µM | > 100 µM | > 100 µM | > 100 µM | > 100 µM | > 100 µM | > 100 µM |  |  |  |  |  |  |  |  | 
10 | C=C1C(=O)O[C@H]2C[C@@H]1CCC1(C)OC1CC/C(C)=C/CC[C@H]2C (some centres undefined) | 45.3 µM | 36.2 µM | 96.8 µM | 38.6 µM | 31.9 µM | 33.5 µM | 37 µM | 31.5 µM | 23.5 µM | 15.6 µM | 35 µM | 24 µM | 18 µM | 19.4 µM | 18.7 µM | 17.3 µM
